Data taken from paper PMC13192270, “RhlR quorum-sensing receptor ligand sensitivity regulates the differential expression of phenazine genes in Pseudomonas aeruginosa” (Journal of Bacteriology, 2026).
Where a chain is given by its changes, count along the chain named.

Columns and labels:
[1] = target: T1, RhlR A44M in ΔrhlI strain (Pseudomonas aeruginosa, UniProt P54292, A44M); assay: ChIP-seq of RhlR-binding sites; assay type: cell-based; conditions: 2 µM C4HSL
T1 construct: expressed in transfected cells; host or cells: P. aeruginosa UCBPP-PA14 ΔrhlI, mutant allele placed on the chromosome at the native rhlR locus
T1 sequence (P54292 1-241 A44M): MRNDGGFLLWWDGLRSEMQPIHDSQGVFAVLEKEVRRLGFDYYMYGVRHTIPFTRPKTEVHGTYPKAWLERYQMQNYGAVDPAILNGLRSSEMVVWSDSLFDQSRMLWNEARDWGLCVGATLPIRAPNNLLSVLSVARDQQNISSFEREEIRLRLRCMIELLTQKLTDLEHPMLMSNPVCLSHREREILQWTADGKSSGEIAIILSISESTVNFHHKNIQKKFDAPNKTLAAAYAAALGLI
Experimental: (§1) P. aeruginosa strains were grown overnight, back diluted 1:100 in fresh LB media, and grown to an OD600 = 2.0. Crosslinking, lysis, and immunoprecipitation were performed as previously described ([37]).

[2] = target: T2, RhlR T58L in ΔrhlI strain (Pseudomonas aeruginosa, UniProt P54292, T58L); assay: ChIP-seq of RhlR-binding sites; assay type: cell-based; conditions: 2 µM C4HSL
T2 construct: expressed in transfected cells; host or cells: P. aeruginosa UCBPP-PA14 ΔrhlI, mutant allele placed on the chromosome at the native rhlR locus
T2 sequence (P54292 1-241 T58L): T1 sequence (P54292 1-241 A44M) with M44A, T58L
Excerpt: To determine the molecular basis for lower levels of phz gene expression in a background that expressed a hypersensitive variant of RhlR, we assessed expression of the pqsABCDE operon ([51]). PqsE is required for optimal expression of the phz genes and, thus, pyocyanin production. RhlR was previously characterized as a repressor of the pqsABCDE operon. We hypothesized that a C4HSL hypersensitive variant would repress pqsABCDE expression, which could lead to the observed decrease in phz gene expression. Indeed, pqsA RNA levels were 20% lower in a strain expressing RhlR T58L compared to WT RhlR (Fig. 6A; Table 2). To confirm that the decrease in gene expression led to a decrease in the available PqsE protein that was capable of interacting with RhlR to specifically drive it to the phz promoter, we performed western blot analyses to measure PqsE protein levels in strains expressing RhlR variants (Fig. 7A). […] Thus, we hypothesized that when PqsE levels fall below a certain concentration, PqsE homodimerization cannot occur, thereby preventing PqsE-RhlR complex formation and reducing promoter occupancy. […] We highlight phzA1 and phzM, which share a promoter (Fig. S10A), rhlA (Fig. S10B), and lecB (Fig. S10C) because of the role of the phz and rhlA promoters in regulating pyocyanin and rhamnolipid production (Fig. 5) and because lecB is a well-characterized PqsE-dependent promoter ([37]). As expected, RhlR T58L had lower promoter occupancy than WT RhlR at the phzA1 promoter, likely due to the lower levels of PqsE present (Fig. 7B; Fig. S10A). Conversely, RhlR occupancy at the rhlA promoter was nearly unchanged from WT RhlR (Fig. 7B; Fig. S10B), reflecting the ability of RhlR to bind the promoter primarily through its dependency on C4HSL.
as §1

Q: `CCCC(=O)N[C@H]1CCOC1=O` [C4HSL, N-butyryl-L-homoserine lactone] was tested. Which “ChIP-seq enrichment at PA14_01490 (rahU) (peak 139,733)” value [1] did it give?
A: 36.29

Q: What about the “ChIP-seq enrichment at PA14_06320 (peak 560,072)” value [1] of the same compound?
A: 207.8

Q: And the “ChIP-seq enrichment at PA14_10360 (peak 895,433)” value [1]?
A: 557.9

Q: What about the “ChIP-seq enrichment at PA14_16100*, PA14_16110 (peak 1,372,370)” value [1] of the same compound?
A: 41.27

Q: And the “ChIP-seq enrichment at PA14_18800 (peak 1,620,628)” value [1]?
A: 459

Q: And the “ChIP-seq enrichment at PA14_18810 operon (peak 1,621,028)” value [1]?
A: 216.7

Q: What about the “ChIP-seq enrichment at PA14_20130, PA14_20140 (fpr) (peak 1,735,823)” value [1] of the same compound?
A: 187.2

Q: And the “ChIP-seq enrichment at PA14_21020 (azeB) operon, PA14_21030 (peak 1,816,906)” value [1]?
A: 2,385.1

Q: And the “ChIP-seq enrichment at PA14_22090 (peak 1,921,598)” value [1]?
A: 403.3

Q: And the “ChIP-seq enrichment at PA14_28250*, PA14_28260 (peak 2,444,398)” value [1]?
A: 18.9

Q: What about the “ChIP-seq enrichment at PA14_29620, fhp operon (peak 2,568,048)” value [1] of the same compound?
A: 698.1

Q: What about the “ChIP-seq enrichment at PA14_30570, PA14_30580 (vqsR) (peak 2,647,472)” value [1] of the same compound?
A: 454.9

Q: And the “ChIP-seq enrichment at PA14_30840* (peak 2,677,542)” value [1]?
A: 631.2

Q: What about the “ChIP-seq enrichment at PA14_37745 operon (peak 3,364,761)” value [1] of the same compound?
A: 0

Q: What about the “ChIP-seq enrichment at PA14_48140 operon (peak 4,285,523)” value [1] of the same compound?
A: 89.06

Q: What about the “ChIP-seq enrichment at PA14_48530 operon (peak 4,313,855)” value [1] of the same compound?
A: 870.2

Q: And the “ChIP-seq enrichment at PA14_49310 (peak 4,382,169)” value [1]?
A: 273.4

Q: What about the “ChIP-seq enrichment at PA14_49740, PA14_49750 operon (peak 4,425,570)” value [1] of the same compound?
A: 518.7

Q: And the “ChIP-seq enrichment at PA14_57970*, PA14_57980 (peak 5,159,548)” value [1]?
A: 16.73

Q: What about the “ChIP-seq enrichment at PA14_59180* (peak 5,268,881)” value [1] of the same compound?
A: 320.1

Q: What about the “ChIP-seq enrichment at PA_48530* (peak 4,314,560)” value [1] of the same compound?
A: 476.8

Q: And the “ChIP-seq enrichment at arcD operon (peak 6,093,032)” value [1]?
A: 97.46

Q: What about the “ChIP-seq enrichment at hcnA operon, exoY (peak 3,236,436)” value [1] of the same compound?
A: 998.8

Q: What about the “ChIP-seq enrichment at hsiA2 operon, hcpD (peak 3,831,541)” value [1] of the same compound?
A: 840.8

Q: What about the “ChIP-seq enrichment at lasA (peak 3,600,666)” value [1] of the same compound?
A: 0

Q: What about the “ChIP-seq enrichment at lasB (peak 1,387,361)” value [1] of the same compound?
A: 155.1

Q: And the “ChIP-seq enrichment at lecB, PA14_20620 operon (peak 1,774,336)” value [1]?
A: 3,659.5

Q: What about the “ChIP-seq enrichment at pa1L (peak 2,721,761)” value [1] of the same compound?
A: 431.4

Q: And the “ChIP-seq enrichment at peak 5,414,219” value [1]?
A: 86.36

Q: And the “ChIP-seq enrichment at phzA1 operon, phzM (peak 813,529)” value [1]?
A: 1,47.87

Q: And the “ChIP-seq enrichment at phzA2 operon (peak 3,561,969)” value [1]?
A: 134.6

Q: What about the “ChIP-seq enrichment at phzB1*, phzC1 (peak 812,427)” value [1] of the same compound?
A: 872.5

Q: And the “ChIP-seq enrichment at phzB2*, phzC2 (peak 3,561,157)” value [1]?
A: 241.2

Q: What about the “ChIP-seq enrichment at phzH (peak 64,211)” value [1] of the same compound?
A: 1,287.1

Q: What about the “ChIP-seq enrichment at rhlA operon (peak 1,648,391)” value [1] of the same compound?
A: 636

Q: And the “ChIP-seq enrichment at rhlI (peak 1,651,804)” value [1]?
A: 425

Q: What about the “ChIP-seq enrichment at rmlB operon (peak 6,082,366)” value [1] of the same compound?
A: 428.1

Q: And the “ChIP-seq enrichment at rpsL operon (peak 754,615)” value [1]?
A: 128.1

Q: What about the “ChIP-seq enrichment at tnpS, tnpT operon (peak 3,188,223)” value [1] of the same compound?
A: 255

Q: What about the “ChIP-seq enrichment at PA14_01490 (rahU) (peak 139,733)” value [2] of the same compound?
A: 1,262.3

Q: What about the “ChIP-seq enrichment at PA14_06320 (peak 560,072)” value [2] of the same compound?
A: 896.4

Q: What about the “ChIP-seq enrichment at PA14_10360 (peak 895,433)” value [2] of the same compound?
A: 513.5

Q: What about the “ChIP-seq enrichment at PA14_16100*, PA14_16110 (peak 1,372,370)” value [2] of the same compound?
A: 1,439.9

Q: And the “ChIP-seq enrichment at PA14_18800 (peak 1,620,628)” value [2]?
A: 405.8

Q: And the “ChIP-seq enrichment at PA14_18810 operon (peak 1,621,028)” value [2]?
A: 87.2

Q: What about the “ChIP-seq enrichment at PA14_20130, PA14_20140 (fpr) (peak 1,735,823)” value [2] of the same compound?
A: 380.5

Q: What about the “ChIP-seq enrichment at PA14_21020 (azeB) operon, PA14_21030 (peak 1,816,906)” value [2] of the same compound?
A: 3,188.5

Q: What about the “ChIP-seq enrichment at PA14_22090 (peak 1,921,598)” value [2] of the same compound?
A: 349.8

Q: And the “ChIP-seq enrichment at PA14_28250*, PA14_28260 (peak 2,444,398)” value [2]?
A: 159.5

Q: What about the “ChIP-seq enrichment at PA14_29620, fhp operon (peak 2,568,048)” value [2] of the same compound?
A: 2,263.3

Q: What about the “ChIP-seq enrichment at PA14_30570, PA14_30580 (vqsR) (peak 2,647,472)” value [2] of the same compound?
A: 554.8

Q: What about the “ChIP-seq enrichment at PA14_30840* (peak 2,677,542)” value [2] of the same compound?
A: 4,222.3

Q: What about the “ChIP-seq enrichment at PA14_37745 operon (peak 3,364,761)” value [2] of the same compound?
A: 433.4

Q: What about the “ChIP-seq enrichment at PA14_48140 operon (peak 4,285,523)” value [2] of the same compound?
A: 340.9

Q: What about the “ChIP-seq enrichment at PA14_48530 operon (peak 4,313,855)” value [2] of the same compound?
A: 867.6

Q: What about the “ChIP-seq enrichment at PA14_49310 (peak 4,382,169)” value [2] of the same compound?
A: 673.4

Q: And the “ChIP-seq enrichment at PA14_49740, PA14_49750 operon (peak 4,425,570)” value [2]?
A: 2,142.3

Q: What about the “ChIP-seq enrichment at PA14_57970*, PA14_57980 (peak 5,159,548)” value [2] of the same compound?
A: 228.8

Q: What about the “ChIP-seq enrichment at PA14_59180* (peak 5,268,881)” value [2] of the same compound?
A: 216.4

Q: What about the “ChIP-seq enrichment at PA_48530* (peak 4,314,560)” value [2] of the same compound?
A: 229

Q: What about the “ChIP-seq enrichment at arcD operon (peak 6,093,032)” value [2] of the same compound?
A: 900.8

Q: And the “ChIP-seq enrichment at hcnA operon, exoY (peak 3,236,436)” value [2]?
A: 1,543.7

Q: And the “ChIP-seq enrichment at hsiA2 operon, hcpD (peak 3,831,541)” value [2]?
A: 1,100.7

Q: And the “ChIP-seq enrichment at lasA (peak 3,600,666)” value [2]?
A: 211.7

Q: And the “ChIP-seq enrichment at lasB (peak 1,387,361)” value [2]?
A: 347.7

Q: What about the “ChIP-seq enrichment at lecB, PA14_20620 operon (peak 1,774,336)” value [2] of the same compound?
A: 13,604.8

Q: What about the “ChIP-seq enrichment at pa1L (peak 2,721,761)” value [2] of the same compound?
A: 171.4

Q: What about the “ChIP-seq enrichment at peak 5,414,219” value [2] of the same compound?
A: 697

Q: What about the “ChIP-seq enrichment at phzA1 operon, phzM (peak 813,529)” value [2] of the same compound?
A: 2,515.8

Q: And the “ChIP-seq enrichment at phzA2 operon (peak 3,561,969)” value [2]?
A: 562.6

Q: And the “ChIP-seq enrichment at phzB1*, phzC1 (peak 812,427)” value [2]?
A: 968.1

Q: What about the “ChIP-seq enrichment at phzB2*, phzC2 (peak 3,561,157)” value [2] of the same compound?
A: 75.06

Q: What about the “ChIP-seq enrichment at phzH (peak 64,211)” value [2] of the same compound?
A: 800.4

Q: And the “ChIP-seq enrichment at rhlA operon (peak 1,648,391)” value [2]?
A: 3,584.5

Q: What about the “ChIP-seq enrichment at rhlI (peak 1,651,804)” value [2] of the same compound?
A: 263.1

Q: And the “ChIP-seq enrichment at rmlB operon (peak 6,082,366)” value [2]?
A: 2,634

Q: What about the “ChIP-seq enrichment at rpsL operon (peak 754,615)” value [2] of the same compound?
A: 416.1

Q: And the “ChIP-seq enrichment at tnpS, tnpT operon (peak 3,188,223)” value [2]?
A: 237.1
